These compounds were tested against IGF1R Ba/F3 (Homo sapiens, UniProt P08069) (assay: Ba/F3 Cell Viability Inhibition Assay (Tel-TK transformed Ba/F3 lines)). Details: Tel-TK (IGF1R) transformed Ba/F3 cells, 48 hours incubation, cell viability (Britelite luminescence).
Format: cell-based, murine
Set-up: the printed alternative
Source text: Ba/F3 is a murine IL-3-dependent pro-B lymphoma cell line. Parental Ba/F3 cells are used to generate a panel of sublines whose proliferation and survival is rendered IL-3-independent by stable transduction with individual tyrosine kinases activated by fusion with the amino-terminal portion of TEL (amino acid 1-375) or BCR. In order to generate Ba/F3 cell lines transformed by Tel-Tyrosine Kinase (TK) fusions, parental Ba/F3 cells are infected with a retrovirus harboring each TEL-fusion kinase and subjected to puromycin selection and IL-3 withdrawal to obtain IL-3-independent, transformed Ba/F3 cells.
Each transformed Ba/F3 cells are cultured in RPMI-1640 media (Gibco Cat #11875093, Carlsbad, Calif.) supplemented with 10% FBS (Hyclone Cat #SV30014.03, Logan, Utah), 4.5 g/L glucose (Sigma #G5400, St.Louis, Mo.), 1.5 g/L sodium bicarbonate (Biowhittaker #17-613E, Walkersville, Md.) and Pen/Strep (Gibco #10378-016, Carlsbad, Calif.). Cells are splitted twice weekly.
The potency of test compounds against various Tel-TK transformed Ba/F3 lines is determined as follows. Exponentially growing BaF3 Tel-TK cells are diluted in fresh medium to 75,000 cells/mL and seeded into 384-well plates (3750 cells/well) at 50 μL/well using a gill liquid dispenser (BioTek, Winooski, Vt., USA). Duplicate plates are run for each cell line. Test and control compounds are serially diluted with DMSO and arrayed in a polypropylene 384-well plate. 50 nL of compound is transferred into the assay plates using a pin-transfer device, and the plates are incubated at 37° C. (5% CO2) for 48 hours. 25 μL Britelite (Perkin Elmer) is added and luminescence is quantified using Analyst GT (Molecular Devices). Custom curve-fitting software is used to produce a logistic fit of percent cell viability as a function of the logarithm of inhibitor concentration. The IC50 is interpolated as the concentration of compound needed to reduce cell viability to 50% of a DMSO control. Parental Ba/F3 cells that are maintained and cultured in presence of IL-3 (1 ng/ml in final) are diluted in fresh medium containing IL-3 (1 ng/ml in final) to 75,000 cells/mL following the same procedure as described above.

Sequence of IGF1R Ba/F3 (P08069 999-1274 limits assumed): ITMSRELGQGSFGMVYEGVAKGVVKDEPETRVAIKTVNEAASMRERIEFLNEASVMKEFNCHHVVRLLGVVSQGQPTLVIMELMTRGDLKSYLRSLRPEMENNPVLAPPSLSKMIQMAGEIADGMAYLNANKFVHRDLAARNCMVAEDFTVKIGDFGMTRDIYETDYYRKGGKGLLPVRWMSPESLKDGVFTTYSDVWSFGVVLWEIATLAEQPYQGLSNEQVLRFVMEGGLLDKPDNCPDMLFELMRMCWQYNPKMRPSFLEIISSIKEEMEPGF

Compound | IC50
Cc1cc(Nc2nc(Nc3cc(C)c([C@H]4CC[C@H](O)CC4)cc3F)ncc2Cl)n[nH]1 [Compound 72, Trans-4-(4-(5-chloro-4-(5-methyl-1H-pyrazol-3-ylamino)pyrimidin-2-ylamino)-5-fluoro-2-methylphenyl)cyclohexanol] | 99 nM
CNC(=O)CN1CCC(c2ccc(Nc3ncc(Cl)c(Nc4cc(C)[nH]n4)n3)c3ccccc23)CC1 [Compound 87, 2-(4-(4-(5-chloro-4-(5-methyl-1H-pyrazol-3-ylamino)pyrimidin-2-ylamino)naphthalen-1-yl)piperidin-1-yl)-N-methylacetamide] | 82 nM
C/C(=N\OCCO)c1cc(C)c(Nc2ncc(Cl)c(Nc3cc(C)[nH]n3)n2)cc1C [Compound 28, 1-(4-(5-chloro-4-(5-methyl-1H-pyrazol-3-ylamino)pyrimidin-2-ylamino)-2,5-dimethylphenyl)ethanone O-2-hydroxyethyloxime] | 141 nM
Cc1cc(Nc2nc(Nc3cc(C)c([C@H]4CC[C@H](N5CCOCC5)CC4)cc3C)ncc2Cl)n[nH]1 [Compound 37, 5-chloro-N^2-(2,5-dimethyl-4-(4-trans-morpholinocyclohexyl)phenyl)-N^4-(5-methyl-1H-pyrazol-3-yl)pyrimidine-2,4-diamine] | 11 nM
Cc1cc(Nc2nc(Nc3cc(C)c([C@H]4CC[C@@H](N5CCN(C)CC5)CC4)cc3F)ncc2Cl)n[nH]1 [Compound 52, Cis-5-chloro-N2-(2-fluoro-5-methyl-4-(4-(4-methylpiperazin-1-yl)cyclohexyl)phenyl)-N4-(5-methyl-1H-pyrazol-3-yl)pyrimidine-2,4-diamine] | 24 nM
Cc1cc(Nc2nc(Nc3cc(C)c(C(=O)NCCN(C)C)cc3C)ncc2Cl)n[nH]1 [Compound 31, 4-(5-chloro-4-(5-methyl-1H-pyrazol-3-ylamino)pyrimidin-2-ylamino)-N-(2-(dimethylamino)ethyl)-2,5-dimethylbenzamide] | 659 nM
Cc1cc(Nc2nc(Nc3cc(C)c(-c4cnn(C)c4)cc3C)ncc2Cl)n[nH]1 [Compound 12, 5-chloro-N2-(2,5-dimethyl-4-(1-methyl-1H-pyrazol-4-yl)phenyl)-N4-(5-methyl-1H-pyrazol-3-yl)pyrimidine-2,4-diamine] | 25 nM
Cc1cc(-c2cc(C)c(Nc3ncc(Cl)c(Nc4cc(C)[nH]n4)n3)cc2C)[nH]n1 [Compound 22, 5-chloro-N2-(2,5-dimethyl-4-(3-methyl-1H-pyrazol-5-yl)phenyl)-N4-(5-methyl-1H-pyrazol-3-yl)pyrimidine-2,4-diamine] | 166 nM
Cc1cc(Nc2nc(Nc3cc(C)c(C4CCC(=O)CC4)cc3C)ncc2C(F)(F)F)n[nH]1 [Compound 40, 4-(2,5-dimethyl-4-(4-(5-methyl-1H-pyrazol-3-ylamino)-5-(trifluoromethyl)pyrimidin-2-ylamino)phenyl)cyclohexanone] | 49 nM
Cc1cc(Nc2nc(Nc3cc(C)c(-c4csc(C)n4)cc3C)ncc2Cl)n[nH]1 [Compound 24, 5-chloro-N2-(2,5-dimethyl-4-(2-methylthiazol-4-yl)phenyl)-N4-(5-methyl-1H-pyrazol-3-yl)pyrimidine-2,4-diamine] | 106 nM
Cc1cc(Nc2nc(Nc3cc4c(cc3F)CNC4=O)ncc2Cl)n[nH]1 [Compound 82, 6-(5-chloro-4-(5-methyl-1H-pyrazol-3-ylamino)pyrimidin-2-ylamino)-5-fluoroisoindolin-1-one] | 2630 nM
Cc1cc(Nc2nc(Nc3cc(C)c([C@H]4CC[C@H](N5CCN(C)CC5)CC4)cc3F)ncc2Cl)[nH]n1 [Compound 53, Trans-5-chloro-N2-(2-fluoro-5-methyl-4-(4-(4-methylpiperazin-1-yl)cyclohexyl)phenyl)-N4-(5-methyl-1H-pyrazol-3-yl)pyrimidine-2,4-diamine] | 25 nM
Cc1cc(Nc2nc(Nc3cc(C)c([C@H]4CC[C@H](N5CCOCC5)CC4)cc3C)ncc2C(F)(F)F)n[nH]1 [Compound 67, N^2-(2,5-dimethyl-4-(trans-4-morpholinocyclohexyl)phenyl)-N^4-(5-methyl-1H-pyrazol-3-yl)-5-(trifluoromethyl)pyrimidine-2,4-diamine] | 9 nM
Cc1cc(Nc2nc(Nc3cc(C)c([C@H]4CC[C@H](N5CCCCC5)CC4)cc3F)ncc2Cl)n[nH]1 [Compound 49, Trans-5-chloro-N2-(2-fluoro-5-methyl-4-(4-(piperidin-1-yl)cyclohexyl)phenyl)-N4-(5-methyl-1H-pyrazol-3-yl)pyrimidine-2,4-diamine] | 40 nM
Cc1cc(Nc2nc(Nc3cc(C)c([C@H]4CC[C@@H](N5CCOCC5)CC4)cc3F)ncc2C(F)(F)F)n[nH]1 [Compound 64, N2-(2-fluoro-5-methyl-4-((cis)-4-morpholinocyclohexyl)phenyl)-N4-(5-methyl-1H-pyrazol-3-yl)-5-(trifluoromethyl)pyrimidine-2,4-diamine] | 50 nM
Cc1cc(Nc2nc(Nc3cc(C)c(-c4ccccn4)cc3F)ncc2Cl)n[nH]1 [Compound 6, 5-chloro-N2-(2-fluoro-5-methyl-4-(pyridin-2-yl)phenyl)-N4-(5-methyl-1H-pyrazol-3-yl)pyrimidine-2,4-diamine] | 294 nM
Cc1cc(Nc2nc(Nc3cc(C)c([C@H]4CC[C@@H](N5CC[C@H](O)C5)CC4)cc3F)ncc2Cl)n[nH]1 [Compound 54, (S)-1-((Cis)-4-(4-(5-chloro-4-(5-methyl-1H-pyrazol-3-ylamino)pyrimidin-2-ylamino)-5-fluoro-2-methylphenyl)cyclohexyl)pyrrolidin-3-ol] | 16 nM
CO/N=C(\C)c1cc(C)c(Nc2ncc(Cl)c(Nc3cc(C)[nH]n3)n2)cc1C [Compound 34, 1-(4-(5-chloro-4-(5-methyl-1H-pyrazol-3-ylamino)pyrimidin-2-ylamino)-2,5-dimethylphenyl)ethanone O-methyl oxime] | 269 nM
Cc1cc(Nc2nc(Nc3cc(C)c([C@H]4CC[C@@H](N5CCCCC5)CC4)cc3C)ncc2C(F)(F)F)n[nH]1 [Compound 60, N2-(2,5-dimethyl-4-((cis)-4-(piperidin-1-yl)cyclohexyl)phenyl)-N4-(5-methyl-1H-pyrazol-3-yl)-5-(trifluoromethyl)pyrimidine-2,4-diamine] | 4 nM
Cc1cc(Nc2nc(Nc3cc(C)c([C@H]4CC[C@H](N5CCCCC5)CC4)cc3C)ncc2Cl)n[nH]1 [Compound 44, Trans-5-chloro-N2-(2,5-dimethyl-4-(4-(piperidin-1-yl)cyclohexyl)phenyl)-N4-(5-methyl-1H-pyrazol-3-yl)pyrimidine-2,4-diamine] | 7 nM
Cc1cc(Nc2nc(Nc3ccc(C4CCN(CC(N)=O)CC4)c(C)n3)ncc2Cl)n[nH]1 [Compound 76, 2-(4-(6-(5-chloro-4-(5-methyl-1H-pyrazol-3-ylamino)pyrimidin-2-ylamino)-2-methylpyridin-3-yl)piperidin-1-yl)acetamide] | 1790 nM
Cc1cc(Nc2nc(Nc3cc(C)c(C(=O)N(C)C)cc3C)ncc2Cl)n[nH]1 [Compound 30, 4-(5-chloro-4-(5-methyl-1H-pyrazol-3-ylamino)pyrimidin-2-ylamino)-N,N,2,5-tetramethylbenzamide] | 539 nM
Cc1cc(Nc2nc(Nc3cc(C)c(C4CCN(CC(N)=O)CC4)cn3)ncc2Cl)n[nH]1 [Compound 84, 2-(4-(6-(5-Chloro-4-(5-methyl-1H-pyrazol-3-ylamino)pyrimidin-2-ylamino)-4-methylpyridin-3-yl)piperidin-1-yl)acetamide] | 525 nM
CNC(=O)c1ccc(-c2cc(F)c(Nc3ncc(Cl)c(Nc4cc(C)[nH]n4)n3)cc2C)cn1 [Compound 4, 5-(4-(5-chloro-4-(5-methyl-1H-pyrazol-3-ylamino)pyrimidin-2-ylamino)-5-fluoro-2-methylphenyl)-N-methylpicolinamide] | 89 nM
Cc1cc(Nc2nc(Nc3cc(C)c([C@H]4CC[C@@H](N5C[C@H](O)[C@@H](O)C5)CC4)cc3F)ncc2C(F)(F)F)n[nH]1 [Compound 68, (3S,4S)-1-((cis)-4-(5-fluoro-2-methyl-4-(4-(5-methyl-1H-pyrazol-3-ylamino)-5-(trifluoromethyl)pyrimidin-2-ylamino)phenyl)cyclohexyl)pyrrolidine-3,4-diol] | 120 nM
Cc1cc(-c2cc(C)c(Nc3ncc(Cl)c(Nc4cc(C)[nH]n4)n3)cc2C)ccn1 [Compound 15, 5-chloro-N2-(2,5-dimethyl-4-(2-methylpyridin-4-yl)phenyl)-N4-(5-methyl-1H-pyrazol-3-yl)pyrimidine-2,4-diamine] | 39 nM

Reference: patent publication US8445505B2 (IRM LLC, priority 2008, dated 2013)
